From US20060078630A1, “Method for the production of flavonoid-containing compositions and use thereof” (priority 2003, published 2006) come the findings set out here.

Test [1] is described as follows: Antioxidant effect by the TEAC III method. It is filed as biochemical. Particulars: in comparison with Trolox and ascorbic acid. As for the experimental part: The relative antioxidant effect of […] extract was determined by the TEAC III method in comparison with Trolox and ascorbic acid: The TEAC III method and other methods are described in Böhm V. (2000) Ernährungsumschau 47, pages 372-375.

The subject of test [2] is phytohaemagglutinin-stimulated mononuclear cells from peripheral blood. The experiment in a line: Inhibition of proliferation of stimulated mononuclear cells by individual flavonoids (3H-thymidine incorporation). The test is classed as cell-based, human. Particulars: luteolin, luteolin-7-glucoside, apigenin at 64-2 μg/ml; 1 μg/ml phytohaemagglutinin; 24 h + 18 h 3H-thymidine; FIG. 3b. As for the experimental part:
For this purpose, mononuclear cells from the peripheral blood of a health donor were isolated via Ficoll density gradients and incubated in RPMI medium with 5% foetal calf serum in microtitre plates. The cells were incubated in triplicates with the flavonoids luteolin, luteolin-7-glucoside and apigenin. The pure substances were dissolved in 70% ethanol and further diluted in medium. The final concentrations were 64, 32, 16, 8, 4, 2 and 0 μg/ml. After addition of the flavonoids, the cells were stimulated with 1 μg/ml of phytohaemagglutinin and incubated for 24 h in an incubator at 37° C. After addition of 1 μCurie of radioactive ^3H-thymidine, the cells were incubated for a further 18 h, and the incorporated radioactivity was then measured in a scintillation counter (Canberra-Packard).
A general note: Uptake of a labelled nucleoside into DNA is a usual measure of proliferation.

Test [3] concerns activated mononuclear cells (lymphocytes). Description: Induction of apoptosis in activated mononuclear cells (cell death detection ELISA). It is filed as cell-based. Particulars: individual flavonoids contained in the extracts; FIG. 5b. On the procedure:
After addition of the additives, the cells were stimulated with 1 μg/ml of phytohaemagglutinin and incubated for 48 h in an incubator. The apoptosis induction was then determined by measuring the oligonucleosomes (low molecular weight DNA fragments) formed in the cells (cell death detection ELISA). […] The apoptosis induction could be blocked by a caspase inhibitor, i.e. is caspase-induced (FIG. 5a).

As to `O=C1O[C@H]([C@@H](O)CO)C(O)=C1O` [Ascorbic acid], the relative antioxidant effect in test [1] is 1.1.

With `O=c1cc(-c2ccc(O)c(O)c2)oc2cc(O)cc(O)c12` [luteolin], in test [2], the “proliferation-inhibiting effect among individual flavonoids” value is on record as “strongest proliferation-inhibiting effect”. Moreover, in test [3], the “apoptosis-inducing activity among individual flavonoids” value is “strongest apoptosis-inducing activity”.

As for `Cc1c(C)c2c(c(C)c1O)CCC(C)(C(=O)O)O2` (stereo not shown) [Trolox], in test [1], the relative antioxidant effect came to 1.0.
